From publication PMC12647218 (Scientific Reports, 2025)

Experiments:
[1] = molecular target: Acetylcholinesterase from Electrophorus electricus (electric eel) (Electrophorus electricus, UniProt O42275); assay: biochemical
[2] = molecular target: T1, hMAO-A (Homo sapiens, UniProt P21397); assay: hMAO-A inhibition, in vitro fluorometric technique; assay type: biochemical
T1 sequence (P21397 1-527): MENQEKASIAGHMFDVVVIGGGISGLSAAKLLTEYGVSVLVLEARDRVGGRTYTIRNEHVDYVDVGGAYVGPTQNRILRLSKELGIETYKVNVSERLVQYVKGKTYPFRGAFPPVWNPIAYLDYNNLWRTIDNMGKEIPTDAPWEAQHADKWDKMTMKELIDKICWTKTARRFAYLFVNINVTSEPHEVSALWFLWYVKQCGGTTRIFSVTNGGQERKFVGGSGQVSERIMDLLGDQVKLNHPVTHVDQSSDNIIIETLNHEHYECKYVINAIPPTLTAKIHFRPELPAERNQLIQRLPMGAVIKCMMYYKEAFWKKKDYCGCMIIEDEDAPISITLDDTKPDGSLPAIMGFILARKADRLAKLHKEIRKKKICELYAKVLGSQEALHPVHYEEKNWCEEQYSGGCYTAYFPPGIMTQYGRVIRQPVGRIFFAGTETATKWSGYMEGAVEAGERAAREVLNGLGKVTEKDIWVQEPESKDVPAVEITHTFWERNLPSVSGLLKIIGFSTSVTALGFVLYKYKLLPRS

[3] = molecular target: Butyrylcholinesterase from equine serum (Equus caballus, UniProt P81908); assay: BChE inhibition, modified colorimetric Ellman method; assay type: biochemical
Sequence of Butyrylcholinesterase from equine serum (P81908 whole entry): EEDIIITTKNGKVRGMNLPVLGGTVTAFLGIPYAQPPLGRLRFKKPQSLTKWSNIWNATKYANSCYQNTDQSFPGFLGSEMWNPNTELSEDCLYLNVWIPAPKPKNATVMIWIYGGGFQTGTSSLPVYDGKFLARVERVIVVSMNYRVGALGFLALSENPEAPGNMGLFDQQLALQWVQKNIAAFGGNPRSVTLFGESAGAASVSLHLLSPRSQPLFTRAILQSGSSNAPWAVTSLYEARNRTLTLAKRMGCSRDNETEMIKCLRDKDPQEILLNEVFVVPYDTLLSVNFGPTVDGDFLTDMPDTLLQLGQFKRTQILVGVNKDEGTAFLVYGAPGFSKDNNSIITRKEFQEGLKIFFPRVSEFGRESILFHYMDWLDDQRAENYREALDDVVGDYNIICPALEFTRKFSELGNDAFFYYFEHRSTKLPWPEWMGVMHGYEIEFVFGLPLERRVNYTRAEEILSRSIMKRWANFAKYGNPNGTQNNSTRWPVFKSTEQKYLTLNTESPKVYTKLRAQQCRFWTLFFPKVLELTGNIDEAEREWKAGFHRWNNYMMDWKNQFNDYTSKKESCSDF

Sequence of Acetylcholinesterase from Electrophorus electricus (electric eel) (O42275 24-633): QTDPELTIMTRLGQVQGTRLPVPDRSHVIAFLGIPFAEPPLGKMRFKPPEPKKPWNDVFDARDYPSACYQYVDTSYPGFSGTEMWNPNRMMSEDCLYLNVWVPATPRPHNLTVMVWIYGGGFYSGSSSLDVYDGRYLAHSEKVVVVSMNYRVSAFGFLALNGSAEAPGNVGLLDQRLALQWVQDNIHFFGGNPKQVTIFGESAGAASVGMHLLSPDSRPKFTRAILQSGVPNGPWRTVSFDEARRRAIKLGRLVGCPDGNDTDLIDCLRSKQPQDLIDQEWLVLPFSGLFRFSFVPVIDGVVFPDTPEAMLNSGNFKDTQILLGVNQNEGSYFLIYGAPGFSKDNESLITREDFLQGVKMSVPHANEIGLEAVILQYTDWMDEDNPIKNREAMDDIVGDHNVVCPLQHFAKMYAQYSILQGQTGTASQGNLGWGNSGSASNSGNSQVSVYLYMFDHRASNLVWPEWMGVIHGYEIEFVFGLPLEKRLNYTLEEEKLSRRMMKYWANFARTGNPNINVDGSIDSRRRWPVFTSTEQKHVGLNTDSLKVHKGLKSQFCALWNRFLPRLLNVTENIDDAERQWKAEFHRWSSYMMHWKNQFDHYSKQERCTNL

Row | SMILES | IC50 [1] | Ki [1] | IC50 [2] | IC50 [3] | Ki [3]
1 | COc1cccc2cc(/C(C)=N/NC(=O)c3cc4ccccc4cc3O)c(=O)oc12 [Compound 3a, (E)-3-Hydroxy-N’-(1-(8-methoxy-2-oxo-2 H-chromen-3-yl)ethylidene)-2-naphthohydrazide] | 7.4 ± 0.14 µM | 6.03 ± 0.4 µM | 1.44 ± 0.03 µM | 74.4 ± 4.98 µM | 63.3 ± 5.38 µM
2 | COc1cccc2cc(/C(C)=N/NC(=O)Cn3ccc4cccnc43)c(=O)oc12 [Compound 3b, (E)-N’-(1-(8-methoxy-2-oxo-2 H-chromen-3-yl)ethylidene)-2-(1 H-pyrrolo[2,3-b]pyridin-1-yl)acetohydrazide] | 26.5 ± 3.42 µM | 15.7 ± 1.37 µM | 1.97 ± 0.1 µM | > 100 µM | > 100 µM
3 | COc1cccc2cc(/C(C)=N/NC(=O)c3ccccc3Br)c(=O)oc12 [Compound 3c, (E)-2-bromo-N’-(1-(8-methoxy-2-oxo-2 H-chromen-3-yl)ethylidene)benzohydrazide] | 17 ± 1.9 µM | 11.3 ± 0.93 µM | 2.03 ± 0.08 µM | > 100 µM | > 100 µM
4 | COc1cccc2cc(/C(C)=N/NC(=O)c3ccccc3C)c(=O)oc12 [Compound 3d, (E)-N’-(1-(8-methoxy-2-oxo-2 H-chromen-3-yl)ethylidene)-2-methylbenzohydrazide] | 20.2 ± 2.67 µM | 13.5 ± 1.24 µM | 1.73 ± 0.05 µM | 90.1 ± 3.78 µM | 69.9 ± 5.75 µM
5 | COc1cccc2cc(/C(C)=N/NC(=O)c3ccc(C(F)(F)F)cc3)c(=O)oc12 [Compound 3e, (E)-N’-(1-(8-methoxy-2-oxo-2 H-chromen-3-yl)ethylidene)-4-(trifluoromethyl) benzohydrazide] | 8.01 ± 0.7 µM | 7.38 ± 1.01 µM | 1.51 ± 0.13 µM | 65.4 ± 4.55 µM | 57 ± 3.95 µM
6 | COc1cccc2cc(/C(C)=N/NC(=O)c3ccco3)c(=O)oc12 [Compound 3f, (E)-N’-(1-(8-methoxy-2-oxo-2 H-chromen-3-yl)ethylidene)furan-2-carbohydrazide] | 23.8 ± 2.44 µM | 19.6 ± 2.44 µM | 3.94 ± 0.43 µM | 78.2 ± 5.8 µM | 68.5 ± 5.07 µM
7 | COc1cccc2cc(/C(C)=N/NC(=O)c3cccc4[nH]ccc34)c(=O)oc12 [Compound 3g, (E)-N’-(1-(8-methoxy-2-oxo-2 H-chromen-3-yl)ethylidene)-1 H-indole-4-carbohydrazide] | 29 ± 4.3 µM | 21 ± 3.48 µM | 2.08 ± 0.15 µM | 81.5 ± 6.02 µM | 73.6 ± 4.66 µM
8 | COc1cccc2cc(/C(C)=N/NC(=O)c3cccc(Cl)c3)c(=O)oc12 [Compound 3h, (E)-3-chloro-N’-(1-(8-methoxy-2-oxo-2 H-chromen-3-yl)ethylidene)benzohydrazide] | 41.1 ± 3.28 µM | 25.8 ± 1.97 µM | 1.8 ± 0.26 µM | 85 ± 3.48 µM | 77 ± 6.92 µM
9 | COc1cccc2cc(/C(C)=N/NC(=O)Cc3ccccc3)c(=O)oc12 [Compound 3i, (E)-N’-(1-(8-methoxy-2-oxo-2 H-chromen-3-yl)ethylidene)-2-phenylacetohydrazide] | 18.4 ± 1.98 µM | 15.4 ± 2.01 µM | 1.87 ± 0.07 µM | 79.3 ± 5.03 µM | 70.3 ± 3.57 µM
10 | COc1cccc2cc(/C(C)=N/NC(=O)c3cccs3)c(=O)oc12 [Compound 3j, (E)-N’-(1-(8-methoxy-2-oxo-2 H-chromen-3-yl)ethylidene)thiophene-2-carbohydrazide] | 21.9 ± 3.24 µM | 14.6 ± 1.05 µM | 2.5 ± 0.31 µM | > 100 µM | > 100 µM
11 | COc1cccc2cc(/C(C)=N/NC(=O)c3ccc(F)cc3)c(=O)oc12 [Compound 3k, (E)-4-fluoro-N’-(1-(8-methoxy-2-oxo-2 H-chromen-3-yl)ethylidene)benzohydrazide] | 12.4 ± 0.98 µM | 7.95 ± 0.57 µM | 1.83 ± 0.17 µM | 71.5 ± 3.68 µM | 66.1 ± 4.62 µM
12 | COc1cccc2cc(/C(C)=N/NC(=O)c3ccccn3)c(=O)oc12 [Compound 3l, (E)-N’-(1-(8-methoxy-2-oxo-2 H-chromen-3-yl)ethylidene)picolinohydrazide] | 8.54 ± 1.01 µM | 7.08 ± 0.64 µM | 1.65 ± 0.34 µM | 75 ± 5.3 µM | 69 ± 5.3 µM
13 | COc1cccc2cc(/C(C)=N/NC(=O)c3ccccc3Cl)c(=O)oc12 [Compound 3m, (E)-2-chloro-N’-(1-(8-methoxy-2-oxo-2 H-chromen-3-yl)ethylidene)benzohydrazide] | 14.8 ± 1.4 µM | 10.4 ± 0.59 µM | 1.9 ± 0.3 µM | 82.3 ± 6.9 µM | 71.4 ± 7.01 µM
